From the supplement of paper PMC11208160

assay: recombinant barcode read abundance after kanamycin selection (control-corrected) (log10(CPM+1)); higher = more efficient recombination; sequences stand for … in AGTGCAGAGAAAATCGGCCAGTTTTCTCTGCCTGCAGTCCGCATGCCGT…ATTTATGCAGCGGACTGCCTTTCTCCCAAAGTGATAAACCGGACAGTATCATGGACCGGTTTTCCCGGTAATCCGTATTTGCAAGGTTGGTTTCACT; site = the 11-nt target
Method in brief: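 In E. coli, a pooled library matched targets to IS621 bridge RNA target-binding loops and was introduced alongside a donor plasmid. Cells went onto chloramphenicol/ampicillin/kanamycin with 0.1 mM IPTG or onto chloramphenicol/ampicillin LB agar as control, in duplicate. Recombination efficiency, from recombinant-junction barcodes as counts per million, is averaged and control-corrected. It is reported as log10(CPM+1).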

Row | Sequence | recombinant barcode read abundance (log10)
1 | GGGAGCCAGTGGGTTCTAACCTGTTGCTGAG [GGGAGCCCTCA_LTGcore_AG_RTGcore_CT] (site GGGAGCCCTCA) (LTG core: AG, RTG core: CT) | 0.493
2 | GGGAGCCAGTGGGTTCTAACCTGTTGCTGCT [GGGAGCCCTCA_LTGcore_AG_RTGcore_AG] (site GGGAGCCCTCA) (LTG core: AG, RTG core: AG) | 0.523
3 | GGGAGCCCATGGGTTCTAACCTGTTGCTGTG [GGGAGCCCTCA_LTGcore_CA_RTGcore_CA] (site GGGAGCCCTCA) (LTG core: CA, RTG core: CA) | 0.536
4 | GGGAGCCCCTGGGTTCTAACCTGTTGCTGAG [GGGAGCCCTCA_LTGcore_CC_RTGcore_CT] (site GGGAGCCCTCA) (LTG core: CC, RTG core: CT) | 1.11
5 | GGGAGCCCGTGGGTTCTAACCTGTTGCTGCG [GGGAGCCCTCA_LTGcore_CG_RTGcore_CG] (site GGGAGCCCTCA) (LTG core: CG, RTG core: CG) | 0.113
6 | GGGAGCCCTTGGGTTCTAACCTGTTGCTGTC [GGGAGCCCTCA_LTGcore_CT_RTGcore_GA] (site GGGAGCCCTCA) (LTG core: CT, RTG core: GA) | 0.0409
7 | GGGAGCCGATGGGTTCTAACCTGTTGCTGAG [GGGAGCCCTCA_LTGcore_GA_RTGcore_CT] (site GGGAGCCCTCA) (LTG core: GA, RTG core: CT) | 0.0418
8 | GGGAGCCGCTGGGTTCTAACCTGTTGCTGGC [GGGAGCCCTCA_LTGcore_GC_RTGcore_GC] (site GGGAGCCCTCA) (LTG core: GC, RTG core: GC) | 0.0416
9 | GGGAGCCTATGGGTTCTAACCTGTTGCTGAG [GGGAGCCCTCA_LTGcore_TA_RTGcore_CT] (site GGGAGCCCTCA) (LTG core: TA, RTG core: CT) | 0.0839
10 | GGGAGCCTATGGGTTCTAACCTGTTGCTGTA [GGGAGCCCTCA_LTGcore_TA_RTGcore_TA] (site GGGAGCCCTCA) (LTG core: TA, RTG core: TA) | 0.157
11 | GGGCGGAACTGGGTTCTAACCTGTTGCGGAG [GGGCGGACTCC_LTGcore_AC_RTGcore_CT] (site GGGCGGACTCC) (LTG core: AC, RTG core: CT) | 0.449
12 | GGGCGGAAGTGGGTTCTAACCTGTTGCGGAG [GGGCGGACTCC_LTGcore_AG_RTGcore_CT] (site GGGCGGACTCC) (LTG core: AG, RTG core: CT) | 0.0524
13 | GGGCGGAAGTGGGTTCTAACCTGTTGCGGCT [GGGCGGACTCC_LTGcore_AG_RTGcore_AG] (site GGGCGGACTCC) (LTG core: AG, RTG core: AG) | 0.193
14 | GGGCGGACCTGGGTTCTAACCTGTTGCGGGG [GGGCGGACTCC_LTGcore_CC_RTGcore_CC] (site GGGCGGACTCC) (LTG core: CC, RTG core: CC) | 0.132
15 | GGGCGGACTTGGGTTCTAACCTGTTGCGGAA [GGGCGGACTCC_LTGcore_CT_RTGcore_TT] (site GGGCGGACTCC) (LTG core: CT, RTG core: TT) | 1.23
16 | GGGCGGACTTGGGTTCTAACCTGTTGCGGAT [GGGCGGACTCC_LTGcore_CT_RTGcore_AT] (site GGGCGGACTCC) (LTG core: CT, RTG core: AT) | 0.0401
17 | GGGCGGACTTGGGTTCTAACCTGTTGCGGCA [GGGCGGACTCC_LTGcore_CT_RTGcore_TG] (site GGGCGGACTCC) (LTG core: CT, RTG core: TG) | 0.146
18 | GGGCGGAGATGGGTTCTAACCTGTTGCGGAG [GGGCGGACTCC_LTGcore_GA_RTGcore_CT] (site GGGCGGACTCC) (LTG core: GA, RTG core: CT) | 0.539
19 | GGGCGGAGCTGGGTTCTAACCTGTTGCGGAG [GGGCGGACTCC_LTGcore_GC_RTGcore_CT] (site GGGCGGACTCC) (LTG core: GC, RTG core: CT) | 0.0821
20 | GGGCGGAGGTGGGTTCTAACCTGTTGCGGAG [GGGCGGACTCC_LTGcore_GG_RTGcore_CT] (site GGGCGGACTCC) (LTG core: GG, RTG core: CT) | 0.0907
21 | GGGCGGAGGTGGGTTCTAACCTGTTGCGGCC [GGGCGGACTCC_LTGcore_GG_RTGcore_GG] (site GGGCGGACTCC) (LTG core: GG, RTG core: GG) | 0.502
22 | GGGCGGATATGGGTTCTAACCTGTTGCGGAG [GGGCGGACTCC_LTGcore_TA_RTGcore_CT] (site GGGCGGACTCC) (LTG core: TA, RTG core: CT) | 0.0954
23 | GGGCGGATATGGGTTCTAACCTGTTGCGGTA [GGGCGGACTCC_LTGcore_TA_RTGcore_TA] (site GGGCGGACTCC) (LTG core: TA, RTG core: TA) | 0.0888

Row | Sequence | recombinant barcode read abundance (log10)
24 | GGGCGGATGTGGGTTCTAACCTGTTGCGGCA [GGGCGGACTCC_LTGcore_TG_RTGcore_TG] (site GGGCGGACTCC) (LTG core: TG, RTG core: TG) | 0.182
25 | GGGCGTGACTGGGTTCTAACCTGTTGCCTAG [GGGCGTGCTAG_LTGcore_AC_RTGcore_CT] (site GGGCGTGCTAG) (LTG core: AC, RTG core: CT) | 0.437
26 | GGGCGTGACTGGGTTCTAACCTGTTGCCTGT [GGGCGTGCTAG_LTGcore_AC_RTGcore_AC] (site GGGCGTGCTAG) (LTG core: AC, RTG core: AC) | 0.0793
27 | GGGCGTGAGTGGGTTCTAACCTGTTGCCTCT [GGGCGTGCTAG_LTGcore_AG_RTGcore_AG] (site GGGCGTGCTAG) (LTG core: AG, RTG core: AG) | 0.523
28 | GGGCGTGATTGGGTTCTAACCTGTTGCCTAG [GGGCGTGCTAG_LTGcore_AT_RTGcore_CT] (site GGGCGTGCTAG) (LTG core: AT, RTG core: CT) | 0.308
29 | GGGCGTGCGTGGGTTCTAACCTGTTGCCTCG [GGGCGTGCTAG_LTGcore_CG_RTGcore_CG] (site GGGCGTGCTAG) (LTG core: CG, RTG core: CG) | 0.0415
30 | GGGCGTGCTTGGGTTCTAACCTGTTGCCTAA [GGGCGTGCTAG_LTGcore_CT_RTGcore_TT] (site GGGCGTGCTAG) (LTG core: CT, RTG core: TT) | 0.104
31 | GGGCGTGCTTGGGTTCTAACCTGTTGCCTAC [GGGCGTGCTAG_LTGcore_CT_RTGcore_GT] (site GGGCGTGCTAG) (LTG core: CT, RTG core: GT) | 0.107
32 | GGGCGTGCTTGGGTTCTAACCTGTTGCCTAG [GGGCGTGCTAG_LTGcore_CT_RTGcore_CT] (site GGGCGTGCTAG) (LTG core: CT, RTG core: CT) | 1.41
33 | GGGCGTGCTTGGGTTCTAACCTGTTGCCTAT [GGGCGTGCTAG_LTGcore_CT_RTGcore_AT] (site GGGCGTGCTAG) (LTG core: CT, RTG core: AT) | 1.05
34 | GGGCGTGCTTGGGTTCTAACCTGTTGCCTGA [GGGCGTGCTAG_LTGcore_CT_RTGcore_TC] (site GGGCGTGCTAG) (LTG core: CT, RTG core: TC) | 1.02
35 | GGGCGTGCTTGGGTTCTAACCTGTTGCCTGT [GGGCGTGCTAG_LTGcore_CT_RTGcore_AC] (site GGGCGTGCTAG) (LTG core: CT, RTG core: AC) | 0.536
36 | GGGCGTGCTTGGGTTCTAACCTGTTGCCTTT [GGGCGTGCTAG_LTGcore_CT_RTGcore_AA] (site GGGCGTGCTAG) (LTG core: CT, RTG core: AA) | 0.509
37 | GGGCGTGTCTGGGTTCTAACCTGTTGCCTGA [GGGCGTGCTAG_LTGcore_TC_RTGcore_TC] (site GGGCGTGCTAG) (LTG core: TC, RTG core: TC) | 0.157
38 | GGGCGTGTGTGGGTTCTAACCTGTTGCCTCA [GGGCGTGCTAG_LTGcore_TG_RTGcore_TG] (site GGGCGTGCTAG) (LTG core: TG, RTG core: TG) | 0.0289
39 | GGTGCCCACTGGGTTCTAACCTGTTGCCGAG [GGTGCCCCTCG_LTGcore_AC_RTGcore_CT] (site GGTGCCCCTCG) (LTG core: AC, RTG core: CT) | 0.416
40 | GGTGCCCATTGGGTTCTAACCTGTTGCCGAG [GGTGCCCCTCG_LTGcore_AT_RTGcore_CT] (site GGTGCCCCTCG) (LTG core: AT, RTG core: CT) | 0.111
41 | GGTGCCCCTTGGGTTCTAACCTGTTGCCGAA [GGTGCCCCTCG_LTGcore_CT_RTGcore_TT] (site GGTGCCCCTCG) (LTG core: CT, RTG core: TT) | 0.481
42 | GGTGCCCCTTGGGTTCTAACCTGTTGCCGAG [GGTGCCCCTCG_LTGcore_CT_RTGcore_CT] (site GGTGCCCCTCG) (LTG core: CT, RTG core: CT) | 1.46
43 | GGTGCCCCTTGGGTTCTAACCTGTTGCCGCA [GGTGCCCCTCG_LTGcore_CT_RTGcore_TG] (site GGTGCCCCTCG) (LTG core: CT, RTG core: TG) | 0.0728
44 | GGTGCCCCTTGGGTTCTAACCTGTTGCCGTT [GGTGCCCCTCG_LTGcore_CT_RTGcore_AA] (site GGTGCCCCTCG) (LTG core: CT, RTG core: AA) | 0.0623
45 | GTCGCCCACTGGGTTCTAACCTGTTGCTAGT [GTCGCCCCTTA_LTGcore_AC_RTGcore_AC] (site GTCGCCCCTTA) (LTG core: AC, RTG core: AC) | 0.348
